Experimental data: ChEMBL document CHEMBL1151930, “Physicochemical determinants of human renal clearance” (J Med Chem, 2009)

Experiments:
clinical = settings: human, in vivo
[1] = Total body clearance in human; settings: in vivo

| SMILES | CL renal (clinical) | clearance [1] |
| --- | --- | --- |
| CC1COc2c(N3CCN(C)CC3)c(F)cc3c(=O)c(C(=O)O)cn1c23 (stereo unspecified) [OFLOXACIN] | 2.7 mL/min/kg | 3.5 mL/min/kg |
| CO[C@H]1/C=C/O[C@@]2(C)Oc3c(C)c(O)c4c(O)c(c(/C=N/N5CCN(C)CC5)c(O)c4c3C2=O)NC(=O)/C(C)=C\C=C\[C@H](C)[C@H](O)[C@@H](C)[C@@H](O)[C@@H](C)[C@H](OC(C)=O)[C@@H]1C [RIFAMPIN] | 0.2 mL/min/kg | 1.5 mL/min/kg |
| CC(C)N(CCC(C(N)=O)(c1ccccc1)c1ccccn1)C(C)C (stereo unspecified) [DISOPYRAMIDE] | 0.5 mL/min/kg | 0.9 mL/min/kg |
| CCN1CCN(C(=O)N[C@@H](C(=O)N[C@@H]2C(=O)N3[C@@H]2SC(C)(C)[C@@H]3C(=O)O)c2ccccc2)C(=O)C1=O [PIPERACILLIN] | 3.2 mL/min/kg | 4 mL/min/kg |
| Clc1cccc(Cl)c1N=C1NCCN1 [CLONIDINE] | 2.48 mL/min/kg | 4 mL/min/kg |
| CCCn1c(=O)[nH]c(=O)c2[nH]cnc21 [ENPROFYLLINE] | 3.56 mL/min/kg | 4 mL/min/kg |
| CCS(=O)(=O)CCn1c([N+](=O)[O-])cnc1C [TINIDAZOLE] | 0.11 mL/min/kg | 0.6 mL/min/kg |
| C=CC[C@@H]1/C=C(\C)C[C@H](C)C[C@H](OC)[C@H]2O[C@@](O)(C(=O)C(=O)N3CCCC[C@H]3C(=O)O[C@H](/C(C)=C/[C@@H]3CC[C@@H](O)[C@H](OC)C3)[C@H](C)[C@@H](O)CC1=O)[C@H](C)C[C@@H]2OC [TACROLIMUS ANHYDROUS] | 0.01 mL/min/kg | 0.7 mL/min/kg |
| CC(C)NCC(O)c1ccc(NS(C)(=O)=O)cc1 (stereo unspecified) [SOTALOL] | 1.7 mL/min/kg | 2 mL/min/kg |
| CN(C)CCc1c[nH]c2ccc(Cn3cncn3)cc12 [RIZATRIPTAN] | 5.32 mL/min/kg | 19 mL/min/kg |
| CCCCCCCN(CC)CCCC(O)c1ccc(NS(C)(=O)=O)cc1 (stereo unspecified) [IBUTILIDE] | 2.5 mL/min/kg | 25 mL/min/kg |
| COc1cccc2c1C(=O)c1c(O)c3c(c(O)c1C2=O)C[C@@](O)(C(=O)CO)C[C@@H]3O[C@H]1C[C@H](N)[C@@H](O)[C@H](C)O1 [EPIRUBICIN] | 2.44 mL/min/kg | 20 mL/min/kg |
| CCN1CCCC1CNC(=O)c1cc(S(N)(=O)=O)ccc1OC (stereo unspecified) [SULPIRIDE] | 1.7 mL/min/kg | 1.83 mL/min/kg |
| COCCCOc1ccnc(C[S+]([O-])c2nc3ccccc3[nH]2)c1C (stereo unspecified) [RABEPRAZOLE] | – | 4 mL/min/kg |
| CN(C)[C@@H]1C(O)=C(C(N)=O)C(=O)[C@@]2(O)C(O)=C3C(=O)c4c(O)cccc4[C@@](C)(O)[C@H]3[C@H](O)[C@@H]12 [OXYTETRACYCLINE] | 1.4 mL/min/kg | 2 mL/min/kg |
| CCN1CCCC1CNC(=O)c1cc(S(=O)(=O)CC)c(N)cc1OC (stereo unspecified) [AMISULPRIDE] | 4.4 mL/min/kg | 7.8 mL/min/kg |
| O=P1(N(CCCl)CCCl)NCCCO1 (stereo unspecified) [CYCLOPHOSPHAMIDE ANHYDROUS] | – | 1.1 mL/min/kg |
| CC(=O)Nc1ccc(OCC(O)CNC(C)C)cc1 (stereo unspecified) [PRACTOLOL] | 1.7 mL/min/kg | 2 mL/min/kg |
| Cc1onc(-c2c(Cl)cccc2Cl)c1C(=O)N[C@@H]1C(=O)N2[C@@H]1SC(C)(C)[C@@H]2C(=O)O [DICLOXACILLIN] | 1.2 mL/min/kg | 2 mL/min/kg |
| CN1CCN2c3ncccc3Cc3ccccc3C2C1 (stereo unspecified) [MIRTAZAPINE] | 0.32 mL/min/kg | 8 mL/min/kg |
| CCN(CC)C(=O)/C(C#N)=C/c1cc(O)c(O)c([N+](=O)[O-])c1 [ENTACAPONE] | 6.4 mL/min/kg | 11.7 mL/min/kg |
| COc1ccc([C@]2(C#N)CC[C@@H](C(=O)O)CC2)cc1OC1CCCC1 [CILOMILAST] | 0.01 mL/min/kg | 0.5 mL/min/kg |
| C[C@@H]1O[C@@H]1P(=O)(O)O [FOSFOMYCIN] | 2 mL/min/kg | 2 mL/min/kg |
| C#CCN(C)[C@H](C)Cc1ccccc1 [SELEGILINE] | 0.2 mL/min/kg | 20 mL/min/kg |
| C=CC1=C(C(=O)O)N2C(=O)[C@@H](NC(=O)/C(=N\OCC(=O)O)c3csc(N)n3)[C@H]2SC1 [CEFIXIME] | 0.42 mL/min/kg | 1 mL/min/kg |

| SMILES | CL renal (clinical) | clearance [1] |
| --- | --- | --- |
| O=[N+]([O-])O[C@@H]1CO[C@H]2[C@@H]1OC[C@@H]2O [ISOSORBIDE MONONITRATE] | 0.1 mL/min/kg | 2 mL/min/kg |
| CCCC1O[C@@H]2C[C@H]3[C@@H]4CCC5=CC(=O)C=C[C@]5(C)[C@H]4[C@@H](O)C[C@]3(C)[C@]2(C(=O)CO)O1 (stereo partly specified) [BUDESONIDE] | 1 mL/min/kg | 20 mL/min/kg |
| Cc1cc(NC(=O)C2=C(O)c3ccccc3S(=O)(=O)N2C)no1 [ISOXICAM] | – | 0.07 mL/min/kg |
| CC1(C)S[C@@H]2[C@H](NC(=O)[C@H](NC(=O)N3CCN(S(C)(=O)=O)C3=O)c3ccccc3)C(=O)N2[C@H]1C(=O)O [MEZLOCILLIN] | 2.4 mL/min/kg | 5.23 mL/min/kg |
| CC[C@@H](CO)NCCN[C@@H](CC)CO [ETHAMBUTOL] | 7.3 mL/min/kg | 10 mL/min/kg |
| CCC1=C(C)CN(C(=O)NCCc2ccc(S(=O)(=O)NC(=O)N[C@H]3CC[C@H](C)CC3)cc2)C1=O [GLIMEPIRIDE] | – | 0.5 mL/min/kg |
| CN1C(=O)C(O)N=C(c2ccccc2Cl)c2cc(Cl)ccc21 (stereo unspecified) [LORMETAZEPAM] | – | 4 mL/min/kg |
| CN(C)CCCN1c2ccccc2Sc2ccc(Cl)cc21 [CHLORPROMAZINE] | 0.16 mL/min/kg | – |
| Nc1ncnc2c1ncn2CCOCP(=O)(O)O [ADEFOVIR] | 3.33 mL/min/kg | – |
| CN(Cc1cnc2nc(N)nc(N)c2n1)c1ccc(C(=O)N[C@@H](CCC(=O)O)C(=O)O)cc1 [METHOTREXATE] | 1.7 mL/min/kg | – |
| Cn1c(=O)c2c(ncn2C)n(C)c1=O [CAFFEINE] | 0.02 mL/min/kg | – |
| CO/N=C(\C(=O)N[C@@H]1C(=O)N2C(C(=O)O)=CCS[C@H]12)c1csc(N)n1 [CEFTIZOXIME] | 1.68 mL/min/kg | – |
| CCCCCCCCCC(=O)N[C@@H](Cc1c[nH]c2ccccc12)C(=O)N[C@H](CC(N)=O)C(=O)N[C@@H](CC(=O)O)C(=O)N[C@@H]1C(=O)NCC(=O)N[C@@H](CCCN)C(=O)N[C@@H](CC(=O)O)C(=O)N[C@H](C)C(=O)N[C@@H](CC(=O)O)C(=O)NCC(=O)N[C@H](CO)C(=O)N[C@@H]([C@H](C)CC(=O)O)C(=O)N[C@@H](CC(=O)c2ccccc2N)C(=O)O[C@@H]1C | 0.09 mL/min/kg | – |
| Nc1nc2c(ncn2CCC(CO)CO)c(=O)[nH]1 [PENCICLOVIR] | 6.7 mL/min/kg | – |
| CN1CCN(C(=O)OC2c3nccnc3C(=O)N2c2ccc(Cl)cn2)CC1 (stereo unspecified) [ZOPICLONE] | 0.1 mL/min/kg | – |
| COc1ccc([C@@H]2Sc3ccccc3N(CCN(C)C)C(=O)[C@@H]2OC(C)=O)cc1 [DILTIAZEM] | 9.23 mL/min/kg | – |
| CO/N=C(\C(=O)N[C@@H]1C(=O)N2C(C(=O)O)=C(C)CS[C@H]12)c1csc(N)n1 | 1.5 mL/min/kg | – |
| CNCC[C@@H](Oc1ccccc1C)c1ccccc1 [ATOMOXETINE] | 0.28 mL/min/kg | – |
| NCC1(CC(=O)O)CCCCC1 [GABAPENTIN] | 1.7 mL/min/kg | – |
| NC(N)=Nc1nc(CSCCC(N)=NS(N)(=O)=O)cs1 [FAMOTIDINE] | 4.42 mL/min/kg | – |
| COc1cc2c3cc1Oc1cc(ccc1O)C[C@@H]1c4c(cc(OC)c(O)c4Oc4ccc(cc4)C[C@@H]3N(C)CC2)CC[N+]1(C)C.[Cl-] | 2.14 mL/min/kg | – |
| CCCCc1nc(Cl)c(CO)n1Cc1ccc(-c2ccccc2-c2nn[nH]n2)cc1 [LOSARTAN] | 0.9 mL/min/kg | – |
| CN(C)[C@@H]1C(O)=C(C(N)=O)C(=O)[C@@]2(O)C(O)=C3C(=O)c4c(O)cccc4[C@@](C)(O)[C@H]3C[C@@H]12 [TETRACYCLINE] | 0.9 mL/min/kg | – |
| CN(C)CCC(c1ccc(Cl)cc1)c1ccccn1 (stereo unspecified) [CHLORPHENIRAMINE] | 0.43 mL/min/kg | – |
| CN(C)CCc1c[nH]c2ccc(C[C@H]3COC(=O)N3)cc12 [ZOLMITRIPTAN] | 2.2 mL/min/kg | – |

| SMILES | CL renal (clinical) | clearance [1] |
| --- | --- | --- |
| CC(C)c1nc(N(C)S(C)(=O)=O)nc(-c2ccc(F)cc2)c1/C=C/[C@@H](O)C[C@@H](O)CC(=O)O [ROSUVASTATIN] | 3.3 mL/min/kg | – |
| OCCN1CCN(CCCN2c3ccccc3Sc3ccc(Cl)cc32)CC1 [PERPHENAZINE] | 5 mL/min/kg | – |
| COc1cc(NCc2ccc3nc(N)nc(N)c3c2C)cc(OC)c1OC [TRIMETREXATE] | 0.14 mL/min/kg | – |
| Nc1ccn(C[C@@H](CO)OCP(=O)(O)O)c(=O)n1.O.O [CIDOFOVIR] | 2.25 mL/min/kg | – |
| Nc1c2c(nc3ccccc13)CCCC2 [TACRINE] | 1.68 mL/min/kg | – |
| C[C@H](N[C@@H](CCc1ccccc1)C(=O)O)C(=O)N1Cc2ccccc2C[C@H]1C(=O)O | 0.9 mL/min/kg | – |
| CNS(=O)(=O)Cc1ccc2[nH]cc(CCN(C)C)c2c1 | 3.7 mL/min/kg | – |
| CCOc1ccccc1OCCN[C@H](C)Cc1ccc(OC)c(S(N)(=O)=O)c1 [TAMSULOSIN] | 0.08 mL/min/kg | – |
| CN(C)C(=O)Oc1ccc[n+](C)c1 [PYRIDOSTIGMINE] | 7.2 mL/min/kg | – |
| C[C@@H](O)[C@H]1C(=O)N2C(C(=O)O)=C(S[C@@H]3CN[C@H](C(=O)N(C)C)C3)[C@H](C)[C@H]12 [MEROPENEM] | 2.73 mL/min/kg | – |
| CCN(CC)CCNC(=O)c1cc(Cl)c(N)cc1OC [METOCLOPRAMIDE] | 1.14 mL/min/kg | – |
| C[C@@H]([C@@H](O)c1ccc(O)cc1)N1CCC(O)(c2ccccc2)CC1 [TRAXOPRODIL] | 1.92 mL/min/kg | – |
| Cc1c(OCC(F)(F)F)ccnc1C[S+]([O-])c1nc2ccccc2[nH]1 (stereo unspecified) [LANSOPRAZOLE] | 0.04 mL/min/kg | – |
| CN(C)CCC=C1c2ccccc2CCc2ccccc21 [AMITRIPTYLINE] | 0.12 mL/min/kg | – |
| CCN(CC)CCNC(=O)c1ccc(NS(C)(=O)=O)cc1 [SEMATILIDE] | 3.5 mL/min/kg | – |
| CC(=O)NC[C@H]1CN(c2ccc(N3CCOCC3)c(F)c2)C(=O)O1 [LINEZOLID] | 0.6 mL/min/kg | – |
| Oc1ccc2c(c1)[C@@]13CCCC[C@@]1(O)[C@@H](C2)N(CC1CCC1)CC3 [BUTORPHANOL] | 2.05 mL/min/kg | – |
| COc1ccc2c3c1O[C@H]1[C@@H](O)C=C[C@H]4[C@@H](C2)N(C)CC[C@@]341 [CODEINE] | 1.7 mL/min/kg | – |
| CC1(C)S[C@@H]2[C@H](NC(=O)C(C(=O)O)c3ccccc3)C(=O)N2[C@H]1C(=O)O (stereo partly specified) [CARBENICILLIN] | 1.9 mL/min/kg | – |
| CC(=O)Nc1c(I)c(C(=O)O)c(I)c(N(C)C(C)=O)c1I [METRIZOIC ACID] | 2.53 mL/min/kg | – |
| COc1cc2nc(N3CCN(C(=O)C4CCCO4)CC3)nc(N)c2cc1OC (stereo unspecified) [TERAZOSIN] | 0.13 mL/min/kg | – |
| NCCCC[C@H](N[C@@H](CCc1ccccc1)C(=O)O)C(=O)N1CCC[C@H]1C(=O)O [LISINOPRIL ANHYDROUS] | 1.2 mL/min/kg | – |
| CCCc1nc2c(C)cc(-c3nc4ccccc4n3C)cc2n1Cc1ccc(-c2ccccc2C(=O)O)cc1 | 0.08 mL/min/kg | – |
| O=C(O)Cc1ccccc1Nc1c(Cl)cccc1Cl [DICLOFENAC] | 0.04 mL/min/kg | – |
